Measurements taken from patent publication US9328138B2 (priority 2011, dated 2016).

What was measured:
[1] = target: T1, HCV genotype 1b (BK) NS3 modified enzyme with a R155K mutation (Hepatitis C virus genotype 1b, UniProt P26663, R1181K); experiment: HCV NS3 protease time-resolved fluorescence (TRF) assay, genotype 1b R155K; type: biochemical; details: Ki 1b R155K
T1 construct: HCV genotype 1b (BK) NS3 modified enzyme
Outline: (§1)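 Assay buffer: 50 mM HEPES pH 7.5, 150 mM NaCl, 0.1% PEG 8000, 0.15% Triton X-100. Ten-minute enzyme–inhibitor preincubation; substrate at 25 nM final; 6 h reaction, room temperature; signal/background set at 5-20 by enzyme amount.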

[2] = target: HCV NS3 protease genotype 3a (3A-1) (Hepatitis C virus genotype 3a, UniProt Q81258); experiment: HCV NS3 protease time-resolved fluorescence (TRF) assay, genotype 3a; type: biochemical; details: Ki 3a
Outline: as §1

[3] = genotype 1b (BK) NS3 R155K, single value

C=C[C@@H]1C[C@]1(NC(=O)[C@@H]1C[C@@H]2CN1C(=O)[C@H](C(C)(C)C)NC(=O)O[C@@H]1C[C@H]1CCCCCc1c(nc3ccccc3c1OCCN1CCOC(C)(C)C1)O2)C(=O)NS(=O)(=O)C1(C)CC1 [Example 173, (1aR,5S,8S,10R,22aR)-5-tert-butyl-17-[2-(2,2-dimethylmorpholin-4-yl)ethoxy]-N-[(1R,2S)-2-ethenyl-1-{[(1-methylcyclopropyl)sulfonyl]carbamoyl}cyclopropyl]-3,6-dioxo-1,1a,3,4,5,6,9,10,18,19,20,21, 22,22a-tetradecahydro-8H-7,10-methanocyclopropa[18,19][1,10,3,6] dioxadiazacyclononadecino[11,12-b] quinoline-8-carboxamide]
Ki [1, 3]: 340 pM
Ki [2]: 9500 pM

C=C[C@@H]1C[C@]1(NC(=O)[C@@H]1C[C@@H]2CN1C(=O)[C@H](C(C)(C)C)NC(=O)O[C@@H]1C[C@H]1CCCCCc1c(nc3ccccc3c1OCCCN1CC(F)C1)O2)C(=O)NS(=O)(=O)C1(C)CC1 [Example 155, (1aR,5S,8S,10R,22aR)-5-tert-butyl-N-[(1R,2S)-2-ethenyl-1-{[(1-methylcyclopropyl)sulfonyl]carbamoyl}cyclopropyl]-17-[3-(3-fluoroazetidin-1-yl)propoxy]-3,6-dioxo-1,1a,3,4,5,6,9,10,18,19,20, 21,22,22a-tetradecahydro-8H-7,10-methanocyclopropa[18,19][1,10,3,6] dioxadiazacyclononadecino [11,12-b]quinoline-8-carboxamide]
Ki [1, 3]: 110 pM
Ki [2]: 1400 pM

C=C[C@@H]1C[C@]1(NC(=O)[C@@H]1C[C@@H]2CN1C(=O)[C@H](C(C)(C)C)NC(=O)O[C@@H]1C[C@H]1CCCCCc1c(nc3ccccc3c1OCCCN(C)CC1CCC(=O)N1)O2)C(=O)NS(=O)(=O)C1(C)CC1 (stereo partly drawn) [Example 195, (1aR,5S,8S,10R,22aR)-5-tert-butyl-N-[(1R,2S)-2-ethenyl-1-{[(1-methylcyclopropyl)sulfonyl]carbamoyl}cyclopropyl]-17-(3-{methyl[(5-oxopyrrolidin-2-yl)methyl]amino}propoxy)-3,6-dioxo-1,1a,3,4,5,6,9,10,18, 19,20,21,22,22a-tetradecahydro-8H-7,10-methanocyclopropa[18,19][1,10,3,6] dioxadiazacyclononadecino[11,12-b] quinoline-8-carboxamide]
Ki [1, 3]: 49 pM
Ki [2]: 660 pM

C=C[C@@H]1C[C@]1(NC(=O)[C@@H]1C[C@@H]2CN1C(=O)[C@H](C1CCCC1)NC(=O)O[C@@H]1CCC[C@H]1CC/C=C/Cc1c(nc3ccccc3c1OCCCN1CCOCC1)O2)C(=O)NS(=O)(=O)C1CC1 [Example 87, (3aR,7S,10S,12R,21E,24aS)-7-cyclo pentyl-N-{(1R,2S)-1-[(cyclopropylsulfonyl)carbamoyl]-2-ethenylcyclopropyl}-19-[3-(morpholin-4-yl)propoxy]-5,8-dioxo-1,2,3,3a,5,6,7,8,11,12,20,23,24, 24a-tetradeca hydro-10H-9,12-methano cyclopenta[18,19][1,10,3,6] dioxadiazacyclononadecino [11,12-b]quinoline-10-carboxamide]
Ki [1, 3]: 240 pM
Ki [2]: 3200 pM

C=C[C@@H]1C[C@]1(NC(=O)[C@@H]1C[C@@H]2CN1C(=O)[C@H](C1CCCC1)NC(=O)O[C@@H]1CCC[C@H]1CC/C=C/Cc1c(nc3ccccc3c1OCCN1CCCC1=O)O2)C(=O)NS(=O)(=O)C1CC1 [Example 79, (3aR,7S,10S,12R,21E,24aS)-7-cyclo pentyl-N-{(1R,2S)-1-[(cyclopropylsulfonyl)carbamoyl]-2-ethenylcyclopropyl}-5,8-dioxo-19-[2-(2-oxopyrrolidin-1-yl)ethoxy]-1,2,3,3a,5,6,7,8,11,12,20,23,24,24a-tetradeca hydro-10H-9,12-methanocyclopenta[18,19][1,10,3,6] dioxadiaza cyclononadecino[11,12-b]quinoline-10-carboxamide]
Ki [1, 3]: 60 pM
Ki [2]: 1800 pM

C=C[C@@H]1C[C@]1(NC(=O)[C@@H]1C[C@@H]2CN1C(=O)[C@H](C(C)(C)C)NC(=O)O[C@@H]1C[C@H]1CCCCCc1c(nc3ccccc3c1OC[C@H]1CCN(C(=O)OC(C)(C)C)C1)O2)C(=O)NS(=O)(=O)C1(C)CC1 [Example 137, tert-butyl (3S)-3-({[(1aR,5S,8S,10R,22aR)-5-tert-butyl-8-{[(1R,2S)-2-ethenyl-1-{[(1-methylcyclopropyl)sulfonyl]carbamoyl}cyclopropyl]carbamoyl}-3,6-dioxo-1,1a,3,4,5,6,9,10,18,19,20,21,22,22a-tetradecahydro-8H-7,10-methanocyclopropa[18,19][1,10,3,6]dioxadiazacyclononadecino[11,12-b]quinolin-17-yl]oxy}methyl)pyrrolidine-1-carboxylate]
Ki [1, 3]: 140 pM
Ki [2]: 1200 pM

C=C[C@@H]1C[C@]1(NC(=O)[C@@H]1C[C@@H]2CN1C(=O)[C@H](C1CCCC1)NC(=O)O[C@@H]1CCC[C@H]1CC/C=C/Cc1c(nc3ccccc3c1OC(=O)CC(C)C)O2)C(=O)NS(=O)(=O)C1CC1 [Example 41, (3aR,7S,10S,12R,21E,24aS)-7-cyclopentyl-10-({(1R,2S)-1-[(cyclopropylsulfonyl)carbamoyl]-2-ethenylcyclopropyl}carbamoyl)-5,8-dioxo-1,2,3,3a,5,6,7,8,11,12,20,23,24,24a-tetradecahydro-10H-9,12-methanocyclopenta[18,19][1,10,3,6]dioxadiazacyclononadecino[11,12-b]quinolin-19-yl 3-methylbutanoate]
Ki [1, 3]: 6600 pM
Ki [2]: 73000 pM

C=C[C@@H]1C[C@]1(NC(=O)[C@@H]1C[C@@H]2CN1C(=O)[C@H](C(C)(C)C)NC(=O)O[C@@H]1CCC[C@H]1CCCCCc1c(nc3ccccc3c1OCCN1CCOCC1)O2)C(=O)NS(=O)(=O)C1(C)CC1 [Example 105, (3aR,7S,10S,12R,24aR)-7-tert-butyl-N-[(1R,2S)-2-ethenyl-1-{[(1-methyl-cyclopropyl)sulfonyl]carbamoyl}cyclopropyl]-19-[2-(morpholin-4-yl)ethoxy]-5,8-dioxo-1,2,3,3a, 5,6,7,8,11,12,20,21, 22,23,24,24a-hexadeca hydro-10H-9,12-methanocyclopenta [18,19][1,10,3,6]dioxadiazacyclo nonadecino[11,12-b]quinoline-10-carboxamide]
Ki [1, 3]: 430 pM
Ki [2]: 14000 pM

C=C[C@@H]1C[C@]1(NC(=O)[C@@H]1C[C@@H]2CN1C(=O)[C@H](C1Cc3ccccc3C1)NC(=O)O[C@@H]1C[C@H]1CCCCCc1c(nc3ccccc3c1OCCCN(C)C)O2)C(=O)NS(=O)(=O)C1(C)CC1 [Example 233, (1aR,5S,8S,10R,22aR)-5-(2,3-dihydro-1H-inden-2-yl)-17-[3-(dimethylamino)propoxy]-N-[(1R,2S)-2-ethenyl-1-{[(1-methylcyclopropyl)sulfonyl]carbamoyl}cyclopropyl]-3,6-dioxo-1,1a,3,4,5,6,9,10,18,19,20,21,22,22a-tetradecahydro-8H-7,10-methanocyclopropa[18,19][1,10,3,6]dioxadiazacyclononadecino[11,12-b]quinoline-8-carboxamide]
Ki ([1]; first of two values printed in the cell (not explained)): 15 pM
Ki ([1]; second of two values printed in the cell (not explained)): 80 pM
Ki [2]: 4200 pM

C=C[C@@H]1C[C@]1(NC(=O)[C@@H]1C[C@@H]2CN1C(=O)[C@H](C(C)(C)C)NC(=O)O[C@@H]1C[C@H]1CCCCCc1c(nc3ccccc3c1OCCCNC(C)COC)O2)C(=O)NS(=O)(=O)C1(C)CC1 (stereo partly drawn) [Example 179, (1aR,5S,8S,10R,22aR)-5-tert-butyl-N-[(1R,2S)-2-ethenyl-1-{[(1-methylcyclopropyl)sulfonyl]carbamoyl}cyclopropyl]-17-{3-[(1-methoxypropan-2-yl)amino]propoxy}-3,6-dioxo-1,1a,3,4,5,6,9,10,18,19,20,21,22,22a-tetradecahydro-8H-7,10-methanocyclopropa[18,19][1,10,3,6] dioxadiazacyclononadecino[11,12-b] quinoline-8-carboxamide]
Ki [1, 3]: 34 pM
Ki [2]: 580 pM

C=C[C@@H]1C[C@]1(NC(=O)[C@@H]1C[C@@H]2CN1C(=O)[C@H](C(C)(C)C)NC(=O)O[C@@H]1C[C@H]1CCCCCc1c(nc3ccccc3c1OCCN1CCCC1)O2)C(=O)NS(=O)(=O)C1(C)CC1 [Example 135]
Ki [1, 3]: 200 pM
Ki [2]: 1800 pM

C=C[C@@H]1C[C@]1(NC(=O)[C@@H]1C[C@@H]2CN1C(=O)[C@H](C(C)(C)C)NC(=O)O[C@@H]1CCC[C@H]1CCCCCc1c(nc3ccccc3c1OCCCN(C)C)O2)C(=O)NS(=O)(=O)C1(COC)CC1 [Example 97, (3aR,7S,10S,12R,24aR)-7-tert-butyl-19-[3-(dimethyl-amino)propoxy]-N-[(1R,2S)-2-ethenyl-1-({[1-(methoxymethyl)cyclopropyl]sulfonyl}carbamoyl)cyclopropyl]-5,8-dioxo-1,2,3,3a,5,6,7,8,11,12,20,21,22,23, 24,24a-hexadecahydro-10H-9,12-methanocyclopenta[18,19] [1,10,3,6]dioxadiaza-cyclononadecino [11,12,-b]quinoline-10-carboxamide]
Ki [1, 3]: 80 pM
Ki [2]: 73000 pM

C=C[C@@H]1C[C@]1(NC(=O)[C@@H]1C[C@@H]2CN1C(=O)[C@H](C(C)(C)C)NC(=O)O[C@@H]1C[C@H]1CCCCCc1c(nc3ccccc3c1OCCCN1CCC(C)(O)C1)O2)C(=O)NS(=O)(=O)C1(C)CC1 (stereo partly drawn) [Example 209, (1aR,5S,8S,10R,22aR)-5-tert-butyl-N-[(1R,2S)-2-ethenyl-1-{[(1-methylcyclopropyl)sulfonyl]carbamoyl}cyclopropyl]-17-[3-(3-hydroxy-3-methylpyrrolidin-1-yl)propoxy]-3,6-dioxo-1,1a,3,4,5,6,9,10,18,19,20,21,22,22a-tetradeca hydro-8H-7,10-methanocyclopropa[18,19][1,10,3,6] dioxadiazacyclononadecino[11,12-b] quinoline-8-carboxamide]
Ki [1, 3]: 56 pM
Ki [2]: 550 pM
